Tests used:
[1] = molecular target: EGFR (Homo sapiens, UniProt P00533); conditions: cited from earlier work
[2] = tested on: HER2/4; conditions: cited from earlier work
[3] = tested on: erlotinib-resistant H1975 cell line; conditions: cited from earlier work
[4] = Study on stability of Crystal form I, II and III (influencing factors; character, moisture content, relevant substances by HPLC, XRPD); assay type: physicochemical
Description: The samples were tested for character, relevant substances, moisture content, XRPD pattern, etc. […] The samples were tested for relevant substances, content, character, moisture content, XRPD pattern, etc. During the study, the uncovered experimental samples were kept in cultured dishes in the air. […] During the study, the uncovered experimental samples were kept in cultured dishes in the air. […] With respect to relevant substances, in accordance with High Performance Liquid Chromatography in Appendix V D in Pharmacopoeia of the People's Republic of China (2010), the samples were determined by area normalization method. Instrument: High Performance Liquid Chromatographic Instrument (Agilent 1200/1260 series) Chromatographic column: chromatographic column using octylsilane chemically bonded silica as filler (HC-C8, 4.6×250 mm, 5 μm) Column temperature: 30° C. Detection wavelength: 230 nm Mobile phase: mobile phase consisting of 0.03 mol/L diammonium hydrogen phosphate/0.03 mol/L sodium perchlorate solution-acetonitrile, and reversed-phase gradient elution was employed. Flow rate: 1.0 mL/min Injection volume: 10 μL Method for determining moisture content: the moisture content was determined in accordance with First Method for Determining Moisture Content B (Coulometric Titration) in Appendix VIII M in Pharmacopoeia of the People's Republic of China (2010).

[5] = Evaluation on pharmacokinetics in SD rats, intragastric administration; assay type: in vivo; conditions: 5 mg/kg
Description: An amorphous form of a compound of Formula (I), the preparation method of which could be found in the particular Examples as disclosed in the international patent application (Publication No. WO 2012027960 A1).
Test animal: SD rats, male, weighed 190-250 g, 6 rats for each crystal form, purchased from Beijing Vital River Laboratory Animal Technology Co., Ltd.
Administration route: intragastric administration, at an administration dose of 5 mg/kg, and an administration volume of 10 mL/kg.
Blood collection: whole blood (about 100 μL) was collected from tail vein 10 min, 30 min, 1 h, 2 h, 4 h, 6 h, 8 h, and 24 h after administration, and added to K2EDTA-containing anticoagulation tubes. The whole blood sample was centrifuged for 6 min at 4° C., 8000 rpm in a high speed centrifuge, and plasma was separated. Plasma needed to be prepared within 30 min after blood collection, and stored at −80° C. in a refrigerator.
Plasma sample analysis: the plasma samples were analyzed by protein precipitation: to plasma (20 μL), an internal standard Gefitinib (200 μL, 50 ng/mL acetonitrile solution) was added; the resultant mixture was vortexed at 500 rpm for 5 min, and centrifuged at 4000 rpm for 20 min in a high speed centrifuge; to the supernatant (100 μL), water (100 μL) was added; the resultant mixture was mixed homogeneously under vortexing and analyzed by LC-MS/MS for blood concentration.
Calculation for PK parameters: PK parameters were calculated by using Pharsight Phoenix 6.2 software.

[6] = Comparison of stability between crystal forms and amorphous form, 60° C. uncovered, relevant substances by HPLC; assay type: physicochemical
Description: Instrument: High Performance Liquid Chromatographic Instrument (Agilent 1260 series) Chromatographic column: chromatographic column using octylsilane chemically bonded silica as filler (HC-C8, 4.6×250 mm, 5 μm) Column temperature: 30° C. Detection wavelength: 230 nm Mobile phase: Mobile phase consisting of 0.06 mol/L sodium dihydrogen phosphate/0.06 mol/L sodium perchlorate solution-acetonitrile, and reversed-phase gradient elution was employed. Flow rate: 1.0 mL/min Injection volume: 10 μL

[7] = 10 days, 40° C./RH75% uncovered

EGFR, sequence (P00533 25-1210): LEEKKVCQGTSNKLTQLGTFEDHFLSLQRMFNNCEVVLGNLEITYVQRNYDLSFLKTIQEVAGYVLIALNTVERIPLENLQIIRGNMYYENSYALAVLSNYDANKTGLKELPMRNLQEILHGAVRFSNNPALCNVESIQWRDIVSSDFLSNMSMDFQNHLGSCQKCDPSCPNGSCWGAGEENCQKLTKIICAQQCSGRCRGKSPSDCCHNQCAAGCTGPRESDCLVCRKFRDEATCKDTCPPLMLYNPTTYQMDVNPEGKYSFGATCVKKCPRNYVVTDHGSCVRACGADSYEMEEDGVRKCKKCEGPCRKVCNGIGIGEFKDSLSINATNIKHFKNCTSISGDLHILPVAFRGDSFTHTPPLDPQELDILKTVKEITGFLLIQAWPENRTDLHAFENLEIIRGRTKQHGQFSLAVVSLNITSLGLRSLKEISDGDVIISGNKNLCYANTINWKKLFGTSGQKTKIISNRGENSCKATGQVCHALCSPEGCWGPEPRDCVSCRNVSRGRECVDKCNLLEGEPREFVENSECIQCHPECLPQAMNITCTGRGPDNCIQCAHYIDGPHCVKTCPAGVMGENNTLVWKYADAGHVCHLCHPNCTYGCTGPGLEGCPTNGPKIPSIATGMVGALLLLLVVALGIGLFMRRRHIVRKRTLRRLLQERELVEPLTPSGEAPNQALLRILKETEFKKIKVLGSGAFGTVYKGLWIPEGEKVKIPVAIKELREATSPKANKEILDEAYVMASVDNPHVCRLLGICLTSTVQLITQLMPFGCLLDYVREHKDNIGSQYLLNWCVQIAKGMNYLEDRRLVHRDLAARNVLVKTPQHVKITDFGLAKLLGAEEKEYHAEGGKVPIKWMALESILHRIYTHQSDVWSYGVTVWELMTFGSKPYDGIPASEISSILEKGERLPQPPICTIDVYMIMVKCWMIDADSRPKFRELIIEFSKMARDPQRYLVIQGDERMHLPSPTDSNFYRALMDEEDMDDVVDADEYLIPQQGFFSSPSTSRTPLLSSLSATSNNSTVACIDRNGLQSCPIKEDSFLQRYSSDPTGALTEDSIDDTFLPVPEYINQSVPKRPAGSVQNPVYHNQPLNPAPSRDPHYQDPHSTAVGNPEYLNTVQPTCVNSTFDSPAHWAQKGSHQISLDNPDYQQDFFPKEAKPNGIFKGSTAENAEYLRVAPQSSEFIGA

For C=CC(=O)Nc1cc2c(Nc3ccc(F)c(Cl)c3)ncnc2cc1OCC1CC2(CCN(C)CC2)C1 [Formula (I), N-(4-((3-chloro-4-fluorophenyl)amino)-7-((7-methyl-7-azaspiro[3.5]nonan-2-yl)methoxy)quinazolin-6-yl)acrylamide], which “Inhibition of EGFR” value [1] is on record?
The value was “effectively inhibit”.

And the “Inhibition of HER2/4” value [2]?
The value was “inhibitory effect”.

What about the “Inhibition of erlotinib-resistant H1975 cell line” value [3] of the same compound?
The value was “significantly inhibitory effect”.

Which results are given for C=CC(=O)Nc1cc2c(Nc3ccc(F)c(Cl)c3)ncnc2cc1OCC1CC2(CCN(C)CC2)C1 [Crystal form III, N-(4-((3-chloro-4-fluorophenyl)amino)-7-((7-methyl-7-azaspiro[3.5]nonan-2-yl)methoxy)quinazolin-6-yl)acrylamide]?
Character ([4]; 0 day): light yellow powder; Moisture content ([4]; 0 day): 3.5%; Total relevant substances ([4]; 0 day): 0.66%; Increase of total relevant substances ([4]; 60° C. uncovered, 5 days vs Day 0): 0.28%; Increase of total relevant substances ([4]; 60° C. uncovered, 10 days vs Day 0): 0.44%; Character ([4]; 5 days, 40° C./RH75% covered): light yellow powder; Moisture content ([4]; 5 days, 40° C./RH75% covered): 3.6%; Total relevant substances ([4]; 5 days, 40° C./RH75% covered): 0.57%; Character ([4]; 5 days, 40° C./RH75% uncovered): light yellow powder; Moisture content ([4]; 5 days, 40° C./RH75% uncovered): 3.9%; Total relevant substances ([4]; 5 days, 40° C./RH75% uncovered): 0.63%; Character ([4]; 5 days, 60° C. covered): light yellow powder; Moisture content ([4]; 5 days, 60° C. covered): 3.6%; Total relevant substances ([4]; 5 days, 60° C. covered): 0.60%; Character ([4]; 5 days, 60° C. uncovered): light yellow powder; Moisture content ([4]; 5 days, 60° C. uncovered): 3.5%; Total relevant substances ([4]; 5 days, 60° C. uncovered): 0.94%; Character ([4]; 5 days, RH-75%): light yellow powder; Moisture content ([4]; 5 days, RH-75%): 4.0%; Total relevant substances ([4]; 5 days, RH-75%): 0.62%; Character ([4]; 5 days, RH-92.5%): light yellow powder; Moisture content ([4]; 5 days, RH-92.5%): 4.0%; Total relevant substances ([4]; 5 days, RH-92.5%): 0.58%; Character ([4]; 5 days, visible light): light yellow powder; Moisture content ([4]; 5 days, visible light): 3.7%; Total relevant substances ([4]; 5 days, visible light): 0.68%; Character ([4]; 10 days, 40° C./RH75% covered): light yellow powder; Moisture content ([4]; 10 days, 40° C./RH75% covered): 3.6%; Total relevant substances ([4]; 10 days, 40° C./RH75% covered): 0.59%; Character [4, 7]: light yellow powder; Moisture content [4, 7]: 3.9%; Total relevant substances [4, 7]: 0.62%; Character ([4]; 10 days, 60° C. covered): light yellow powder; Moisture content ([4]; 10 days, 60° C. covered): 3.5%; Total relevant substances ([4]; 10 days, 60° C. covered): 0.64%; Character ([4]; 10 days, 60° C. uncovered): light yellow powder; Moisture content ([4]; 10 days, 60° C. uncovered): 3.4%; Total relevant substances ([4]; 10 days, 60° C. uncovered): 1.1%; Character ([4]; 10 days, RH-75%): light yellow powder; Moisture content ([4]; 10 days, RH-75%): 3.8%; Total relevant substances ([4]; 10 days, RH-75%): 0.56%; Character ([4]; 10 days, RH-92.5%): light yellow powder; Moisture content ([4]; 10 days, RH-92.5%): 4.3%; Total relevant substances ([4]; 10 days, RH-92.5%): 0.60%; Character ([4]; 10 days, UV light): light yellow powder; Moisture content ([4]; 10 days, UV light): 3.8%; Total relevant substances ([4]; 10 days, UV light): 0.70%; Stability of the samples (conclusion) ([4]; influencing factor conditions (high temperature, high moisture, light), 10 days): good stability; Pharmacokinetic properties (conclusion) [5]: good pharmacokinetic properties; AUC0-t ([5]; suspension in water): 1324 ng·h/mL; AUCinf ([5]; suspension in water): 1340 ng·h/mL; Cmax (maximum blood concentration) ([5]; suspension in water): 134 ng/mL; T1/2 (drug elimination half-life) ([5]; suspension in water): 3.35 h; Tmax (time to maximum blood concentration) ([5]; suspension in water): 4 h; Total relevant substances ([6]; 0 day): 0.81%; Change in total relevant substances (conclusion) ([6]; 60° C. uncovered, 5 days and 10 days): little increase in total relevant substances; Total relevant substances ([6]; 60° C. uncovered-5 days): 1.1%; Total relevant substances ([6]; 60° C. uncovered-10 days): 2.0%

From patent publication US10689359B2, “Crystals of quinazoline derivative and preparation method therefor” (Xuanzhu Pharma Co., Ltd., priority 2015, dated 2020)
